Among the test systems are MDA-MB-231; RPMI-8226; HT-29; UACC-62; ACHN; BT-549; HCT-15; Hs-578T; SK-MEL-2; EKVX; TK-10; SNB-19; OVCAR-8; NCI-H460; UACC-257; MDA-MB-435; OVCAR-5; T47D; NCI-H226; CAKI-1.
Experiment in all cases: growth of human tumour cells (NCI), 48 h

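Method: 48-hour compound exposure of cells in 96-well plates, five concentrations, linear interpolation of endpoints. Here, GI50 denotes the concentration required for 50% inhibition of growth.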 The source made the active and inactive calls. Rule as the data show it: active = GI50 up to about 1.1 µM and inactive = higher.

Take `O=C1Nc2ccccc2/C1=N\c1cccc2ncccc12`: the GI50 in the assay on MDA-MB-231 was > 100 µM (inactive); in the assay on RPMI-8226, 36.5 µM (inactive); in the assay on HT-29 it was 58.3 µM (inactive); in the assay on UACC-62, > 100 µM (inactive); with ACHN, > 100 µM (inactive); with BT-549, > 100 µM (inactive). The GI50 with HCT-15 was 68.1 µM; with Hs-578T it was 39.1 µM (inactive); in the assay with SK-MEL-2, > 100 µM (inactive); in the assay with EKVX, 19.1 µM (inactive); with TK-10, > 100 µM (inactive); with SNB-19, > 100 µM (inactive). The GI50 is > 100 µM (inactive) in the assay with OVCAR-8; 69.7 µM (inactive) with NCI-H460; 41 µM (inactive) in the assay on UACC-257; 20 µM (inactive) in the assay with MDA-MB-435; 63 µM (inactive) in the assay with OVCAR-5; > 100 µM (inactive) in the assay with T47D. Besides, the GI50 with NCI-H226 and in the assay on CAKI-1 was > 100 µM (inactive) in each case.
On to `Cn1c(=O)c2c(nc(NCCCCl)n2CC(=O)O)n(C)c1=O`, for which the GI50 in the assay on MDA-MB-231, in the assay with RPMI-8226, with HT-29, in the assay with UACC-62, in the assay with ACHN and with BT-549 was > 100 µM (inactive) each time. For the same compound, the GI50 in the assay on HCT-15 is over 100 µM; in the assay with Hs-578T it was > 100 µM (inactive); in the assay on SK-MEL-2, > 100 µM (inactive); with EKVX it was > 100 µM (inactive); with TK-10 it was > 100 µM (inactive); in the assay on SNB-19 it was > 100 µM (inactive). Besides, the GI50 with OVCAR-8, in the assay with NCI-H460, with UACC-257, in the assay on MDA-MB-435, in the assay with OVCAR-5 and in the assay on T47D was > 100 µM (inactive) in each case. The GI50 with NCI-H226 and with CAKI-1 was > 100 µM (inactive) in each case.
Regarding `CNC1=Nc2ccccc2C(=O)N2CSCC12` (stereo not given), the GI50 in the assay on MDA-MB-231, with RPMI-8226, in the assay on HT-29, with UACC-62, in the assay on ACHN and in the assay with BT-549 was > 100 µM (inactive) in each case. In addition, the GI50 in the assay with HCT-15 was over 100 µM; in the assay on Hs-578T it was > 100 µM (inactive); in the assay on SK-MEL-2, > 100 µM (inactive); in the assay with EKVX, > 100 µM (inactive); in the assay with TK-10, > 100 µM (inactive); in the assay on SNB-19, > 100 µM (inactive). Further, the GI50 in the assay on OVCAR-8, in the assay with NCI-H460, in the assay with UACC-257, in the assay on MDA-MB-435, in the assay with OVCAR-5 and with T47D was > 100 µM (inactive) each time. The GI50 with NCI-H226 and with CAKI-1 was > 100 µM (inactive) each time.
`c1cc(-c2ccc(Oc3ccc(-c4ccncc4)cc3)cc2)ccn1`: the GI50 with MDA-MB-231 was 18.3 µM (inactive); in the assay with RPMI-8226 it was 1.67 µM (inactive); in the assay on HT-29, 3.7 µM (inactive); in the assay on UACC-62, 7.18 µM (inactive); with ACHN it was 9.48 µM (inactive); in the assay with BT-549, 5.07 µM (inactive). Moreover, the GI50 in the assay on HCT-15 is 3.43 µM; with Hs-578T it was 12.8 µM (inactive); in the assay on SK-MEL-2, 5.38 µM (inactive); in the assay with EKVX it was 5.53 µM (inactive); in the assay on TK-10, 7.18 µM (inactive); in the assay with SNB-19 it was 6.25 µM (inactive). Moreover, the GI50 in the assay on OVCAR-8 is 9.55 µM (inactive); in the assay on NCI-H460, 3.93 µM (inactive); in the assay on UACC-257, 4.91 µM (inactive); in the assay with MDA-MB-435, 1.85 µM (inactive); in the assay with OVCAR-5, 29.2 µM (inactive); in the assay on T47D it was 5.13 µM (inactive). The GI50 with NCI-H226 is 27.6 µM (inactive); with CAKI-1, 3.22 µM (inactive).
With `Cn1c2ccccc2c2cc(-c3ccccc3)c3c(c21)C(=O)C=CC3=O`, the GI50 in the assay with MDA-MB-231 is 23.2 µM (inactive); in the assay on RPMI-8226, 2.45 µM (inactive); in the assay on HT-29 it was 17.5 µM (inactive); with UACC-62 it was 19.3 µM (inactive); in the assay on ACHN, 19.8 µM (inactive); in the assay with BT-549, 12.4 µM (inactive). The GI50 with HCT-15 was 15.2 µM; in the assay with Hs-578T, 28.9 µM (inactive); in the assay with SK-MEL-2 it was 22.4 µM (inactive); in the assay with EKVX, 39.7 µM (inactive); in the assay on TK-10, 17.1 µM (inactive); with SNB-19 it was 36.6 µM (inactive). In addition, the GI50 in the assay on OVCAR-8 was 30.3 µM (inactive); in the assay on NCI-H460, 20.6 µM (inactive); in the assay on UACC-257, 21.6 µM (inactive); in the assay on MDA-MB-435 it was 15.1 µM (inactive); in the assay with OVCAR-5, 19 µM (inactive); in the assay with T47D, 9.55 µM (inactive). Besides, the GI50 in the assay with NCI-H226 was 15.2 µM (inactive); in the assay with CAKI-1 it was 18.3 µM (inactive).
Consider `O=c1c2ccccc2nc(Nc2cccc(Cl)c2)n1/N=C/C=C/c1ccccc1`, for which the GI50 in the assay on MDA-MB-231 is 71 µM (inactive); in the assay with RPMI-8226, > 100 µM (inactive); in the assay on HT-29, 61.9 µM (inactive); in the assay with UACC-62, 41.3 µM (inactive); with ACHN it was 50.7 µM (inactive); with BT-549, > 100 µM (inactive). The GI50 in the assay on HCT-15 is over 100 µM; in the assay on Hs-578T, 62.8 µM (inactive); in the assay on SK-MEL-2, > 100 µM (inactive); in the assay on EKVX, 80.7 µM (inactive); in the assay with TK-10 it was > 100 µM (inactive); in the assay with SNB-19 it was 47.2 µM (inactive). For the same compound, the GI50 with OVCAR-8 is 39.2 µM (inactive); with NCI-H460, 48.2 µM (inactive); with UACC-257, 85.9 µM (inactive); in the assay with MDA-MB-435, > 100 µM (inactive); with OVCAR-5, > 100 µM (inactive); with T47D, 64.9 µM (inactive). For the same compound, the GI50 with NCI-H226 is 99.5 µM (inactive); in the assay on CAKI-1 it was > 100 µM (inactive).
Turning to `COC1CCC(OS(C)(=O)=O)C(C)O1` (stereo not given), the GI50 in the assay on MDA-MB-231, in the assay with RPMI-8226, in the assay on HT-29, with UACC-62, in the assay with ACHN and in the assay on BT-549 was > 10 µM (inactive) each time. The GI50 with HCT-15 is over 10 µM; in the assay with Hs-578T it was > 10 µM (inactive); with SK-MEL-2 it was > 10 µM (inactive); in the assay on EKVX it was > 10 µM (inactive); with TK-10, > 10 µM (inactive); in the assay on SNB-19 it was > 10 µM (inactive). In addition, the GI50 in the assay with OVCAR-8, in the assay with NCI-H460, in the assay on UACC-257, with MDA-MB-435, with OVCAR-5 and with T47D was > 10 µM (inactive) each time. The GI50 with NCI-H226 and with CAKI-1 was > 10 µM (inactive) in each case.

Values taken from ChEMBL document CHEMBL1201862, “PubChem BioAssay data set” (2004).
